These results are taken from patent publication US9730906B2, “α-derivatives of cis-monounsaturated fatty acids for use as medicines” (UNIVERSITAT DE LES ILLES BALEARS, priority 2008, dated 2017).

For experiment [1], the system named is SF767 human tumour cells. The experiment in a line: Growth of SF767 tumour cells in culture. The experiment is classed as cell-based. Particulars: concentration that reduces the number of cells to half. How it is done:
In a second experimental series, designed to discover whether these molecules are effective in treatment of different types of tumours, the effect of OHOD at various concentrations on human cells of different types of cancer was studied. These experiments were performed as described before, except that the M220 and HT-29 cell lines were cultured in DMEM medium and the MDA-MB-231 line was incubated in Leibowitz L-15 medium supplemented with 15% foetal bovine […]. […] Where the nature of the tumour process requires, application can be topical (use on the skin of active products for the treatment of melanoma and other cutaneous abnormalities of cancerous nature), which can be considered as cosmetic treatments when attempts are made to correct aesthetic defects.

In experiment [2] the test system is SF767 human brain cancer cells. Kind of experiment: Tumour volume in nude mice infected with SF767 human brain cancer cells. The experiment is classed as in vivo. The note with it: 600 mg/kg daily for 50 days, p<0.001 vs control. The procedure:
FIG. 6A. Effect of different salts of OHOD on human lung cancer in an animal cancer model. The volume of tumours in nude mice infected with SF767 human brain cancer cells (expressed as a percent compared to control) receiving various treatments. The animals received a vehicle (water: Control), 600 mg/kg of OHOD in the form of free fatty acid (OHOD), 600 mg/kg of sodium salt of OHOD (Na-OHOD) or 600 mg/kg of ammonium salt of OHOD (NH3OHOD) daily for 50 days.
FIG. 6B. Effect of different salts of OHOD on human lung cancer in an animal cancer model. The effect of different doses of sodium salt of OHOD (Na-OHOD) are shown on tumour volumes in mice infected with SF767 cells and treated with vehicle (control, 0 mg/kg), 100 mg/kg (100), 200 mg/kg (200), 400 mg/kg (400) and 600 mg/kg (600) for 50 days. * p<0.05; ***p<0.001.
One important characteristic of the molecules covered in the present invention is that they can form various types of salts. FIG. 6A and Table 5 show the therapeutic effects of various α-derivatives of cis-monounsaturated fatty acids and their salts. […] The specificity of this effect is determined by the relation between the dose and the effect these molecules have on the volume of human tumours implanted in animals (FIG. 6B).

Experiment [3] deals with A549 cells. The experiment in a line: Growth/viability of A549 lung cancer cells in culture (cell count). Particulars: concentration that reduces the number of cells to half. The experiment is classed as cell-based, human. A digest of the protocol: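 A549 cells were grown in RPMI with 10% serum at 37 °C under 5% CO2 and exposed to fatty-acid derivatives at 0–400 μM, or at 150 μM for 48 h. Cell number was counted by flow cytometry and expressed as percent of untreated control.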

Experiment [4] is described as follows: Levels of cholesterol, triglycerides and glucose in rats after oral treatment. The experiment is classed as in vivo, rat. The note with it: rats, daily dose of 600 mg/kg oral; untreated controls = 100%. The procedure: FIG. 13. The four bars, from left to right respectively, show the effect of treatments with vehicle (control, first bar), OHOD at 200 mg/kg (second bar), OHOD at 400 mg/kg (third bar) and OHOD at 600 mg/kg (fourth bar) on the cholesterol levels (group of four bars to the left), triglycerides (group of four bars in the middle) and glucose (group of four bars to the right). The treatments were oral in all cases and were maintained for 30 days. The values indicated are the average obtained in 6 animals per group.
FIG. 14. Effect of treatment with vehicle (control) or with the fatty acids of the invention (600 mg/kg) on the levels of cholesterol, triglycerides and glucose. The values indicated are the average of the values obtained in 6 animals. Each group of three bars represents treatment with a different fatty acid with the left bar corresponding to cholesterol, the middle bar to triglycerides and the right bar to glucose.
Metabolic diseases form a set of pathologies characterised by the accumulation or deficit of certain molecules (cholesterol, triglycerides, glucose, etc.) in the serum or tissues. These changes are the reflection of dysfunctions that are normally associated with errors in the activity of certain enzymes or in the control of these proteins. Among the most important metabolopathies are hypercholesterolemia (elevated levels of cholesterol), hypertriglyceridemia (elevated levels of triglycerides) and diabetes (elevated levels of glucose). These pathologies have high rates of incidence, morbidity and mortality, so that treatment is a first order necessity. […] For these experiments, the dose of fatty acid indicated (0, 200, 400 and 600 mg/kg) was supplied daily via the oral route. At the end of the treatment (30 days), blood was sampled from control and treated animals (n=6) and the levels of cholesterol, triglycerides and glucose were determined using standard colorimetric methods.
(§1) In a further experiment, the effect of various molecules at a single dose (600 mg/kg) was investigated. […] In this sense, modification on the α-carbon and the double bond in cis configuration are crucial elements for producing the therapeutic effect indicated above. […] Finally, the effect of α-derivatives of cis-monounsaturated fatty acids on the prevention of obesity was investigated. For this, a model of rat obesity induced by a cafeteria diet, where the hypercaloric food increases the weight of the animals very markedly, was used. There were various experimental groups (see Table 3), each of which consisted of 6 female Wistar Kyoto rats of 250-300 g in weight. All the animals received a standard diet for 2 weeks. In addition, 2 of the groups received an oral preventative pre-treatment of vehicle and the other groups received 300 mg/kg of the fatty acids indicated below. Afterwards, one of the control groups was maintained on a standard diet (lean control) and the other was fed on a cafeteria diet (obese control). The treated animal groups were fed on the cafeteria diet. Preventative pre-treatment was maintained for all the groups. After two weeks on these diets, the lean control group had increased their body weight by an average of 16±16 g, while the obese control group had increased their body weight by an average of 43±17 g (statistically significance difference, p<0.01).

Experiment [5] in a line: Body weight of rats on cafeteria diet, no pre-treatment (Table 5). Type of experiment: in vivo, rat. The note with it: cafeteria diet for 2 weeks, 300 mg/kg daily oral, no pre-treatment. The source says: (§2) The weight of treated animals was statistically less than the weight of obese control rats and statistically indistinguishable from that of lean control rats.
In experiment [6] the test system is hypertensive rats. Kind of experiment: Arterial pressure in hypertensive rats after 8-day treatment (Table 5). Type of experiment: in vivo, rat. The note with it: arterial pressure, hypertensive rats, 8-day treatment, 400 mg/kg oral.
Experiment [7] has as its system TNF-α. Kind of experiment: Proinflammatory cytokines in U937 monocytes stimulated with LPS. The note with it: 250 μM, 72 h; Control 15 ± 6, LPS 1504 ± 7. Type of experiment: cell-based, human. The procedure: (§3) FIG. 18. Levels of interleukin 6 IL-6 (left bar) and […] TNF-α (right bar) in human monocytes in the absence (control) or presence of a pro-inflammatory treatment with bacterial lipopolysaccharide (LPS). Cells treated with LPS were cultured in the absence (Control+LPS) or presence of various fatty acids shown on the horizontal axis.
(§4) In an additional study on the release of various proinflammatory cytokines (IL-1b, IL-6, IL-8, IL-10) and TNF-α in U937 monocytes stimulated with bacterial lipopolysaccharide (LPS), a marked reduction in the levels of these molecules was observed after treatments with OHHD at a concentration of 250 μM and 72 h incubation (Table 4). The effect of the α-derivatives of cis-monounsaturated fatty acids (250 μM, 6 h) on the activity and expression of the COX-1 and COX-2 cyclooxygenases was investigated in the same system.

Experiment [8] deals with IL-6. The description is as above. The experiment is classed as cell-based, human. The note with it: 250 μM, 72 h; Control 24 ± 3, LPS 1072 ± 4. How it is done:
as §3, §4

Experiment [9] relates to cyclooxygenase-2 (COX-2). Kind of experiment: Cellular concentration of COX-2 in U937 differentiated monocytes (immunoblot). The note with it: 250 μM, 6 hours; compared with fatty acids not of Formula I, p<0.05. The experiment is classed as cell-based, human. How it is done:
FIG. 19B. Effect of various fatty acids in the inhibition (concentration of protein) of cyclooxygenase-2 (immunoblot of COX-2). […] Cell cultures (U937 differentiated monocytes) were treated with the fatty acids of the invention (250 μM, 6 hours).
as §4

Experiment [10] relates to IL-10. Kind of experiment: Proinflammatory cytokines in U937 monocytes stimulated with LPS. The note with it: 250 μM, 72 h; Control 32 ± 1, LPS 315 ± 9. The experiment is classed as cell-based, human. The procedure: as §4
Experiment [11] relates to IL-8. The description is as above. The experiment is classed as cell-based, human. The note with it: 250 μM, 72 h; Control 345 ± 7, LPS 967 ± 8. The procedure:
as §4

Experiment [12] relates to IL-1b. Described as above. The note with it: 250 μM, 72 h; Control 12 ± 2, LPS 132 ± 2. The experiment is classed as cell-based, human. The procedure:
as §4

Experiment [13] concerns A549 cells of human lung adenocarcinoma. Kind of experiment: Prevention of tumour development in nude mice injected with A549 cells. Type of experiment: in vivo. The note with it: 400 mg/kg per day oral, 2 weeks before and one month after A549 injection, compared with fatty acids not of Formula I, p<0.05. The source says:
FIG. 2. Preventative effect of various fatty acids against tumour development. […] Animals received treatment before injection of tumour cells and the treatment was subsequently maintained. Animals of the control group were not treated and the volume of their tumours was taken as the reference value (100%).
To determine whether the fatty acids of the invention have applications in the prevention of the development of tumour processes, an animal cancer model was used. This model consisted of immune-deprived animals ([Crl:Nu(Ico)-Fox 1] nude mice in which non-microcytic human lung cancer cells were injected (5×10^6 A549 cells per animal). The control group (infected with cancer cells but untreated) started to develop tumours that were visible after a few days. The sizes of the tumours were measured for the first time at 10 days after implanting the tumour and measurements continued for up to 31 days after the implantation with a digital calliper. The volume of the tumours was calculated with the following equation: v=w^2×l/2 where v is the volume of the tumour, w is its width and l is the length. Preventative treatments against development of the cancer were applied. To carry out these treatments, 400 mg/kg were administered per day for 2 weeks before the injection of tumour cells. This treatment was continued for one month after the implantation of the tumour cells and the volume of the tumours in the animals was measured. Each experimental group was composed of 8 animals. Oral administration of α-derivatives of cis-monounsaturated fatty acids prevented cancer development (A549 cells of human lung adenocarcinoma) (FIG. 2). […] Therefore it was concluded that the introduction of a double bond in the cis configuration in the structure of the fatty acid is a critical factor in the prevention and treatment by fatty acids of cancer development.

In experiment [14] the target is T1, cyclooxygenases-1 (COX-1) (Homo sapiens, UniProt P23219).
T1 construct: endogenous in cells; host or cells: U937 differentiated monocytes
The experiment in a line: COX-1 activity in U937 differentiated monocytes (Cayman COX-1 inhibitor screening system). The experiment is classed as cell-based. The note with it: 250 μM, 6 hours; compared with fatty acids not of Formula I, p<0.05. How it is done:
FIG. 19A. Effect of various fatty acids in the inhibition of the activity of cyclooxygenases-1 (COX-1) (Cayman COX-1 inhibitor screening system). […] Cell cultures (U937 differentiated monocytes) were treated with the fatty acids of the invention (250 μM, 6 hours).
as §4

Experiment [15] is described as follows: Rat obesity induced by cafeteria diet, preventative pre-treatment (Table 3). The experiment is classed as in vivo, Wistar Kyoto rats. The note with it: 300 mg/kg oral, after two weeks on cafeteria diet; obese control 308 ± 17, lean control 280 ± 16; * lower than obese controls, ‡ indistinguishable. The procedure: as §1, §2

T1 sequence (P23219 24-599): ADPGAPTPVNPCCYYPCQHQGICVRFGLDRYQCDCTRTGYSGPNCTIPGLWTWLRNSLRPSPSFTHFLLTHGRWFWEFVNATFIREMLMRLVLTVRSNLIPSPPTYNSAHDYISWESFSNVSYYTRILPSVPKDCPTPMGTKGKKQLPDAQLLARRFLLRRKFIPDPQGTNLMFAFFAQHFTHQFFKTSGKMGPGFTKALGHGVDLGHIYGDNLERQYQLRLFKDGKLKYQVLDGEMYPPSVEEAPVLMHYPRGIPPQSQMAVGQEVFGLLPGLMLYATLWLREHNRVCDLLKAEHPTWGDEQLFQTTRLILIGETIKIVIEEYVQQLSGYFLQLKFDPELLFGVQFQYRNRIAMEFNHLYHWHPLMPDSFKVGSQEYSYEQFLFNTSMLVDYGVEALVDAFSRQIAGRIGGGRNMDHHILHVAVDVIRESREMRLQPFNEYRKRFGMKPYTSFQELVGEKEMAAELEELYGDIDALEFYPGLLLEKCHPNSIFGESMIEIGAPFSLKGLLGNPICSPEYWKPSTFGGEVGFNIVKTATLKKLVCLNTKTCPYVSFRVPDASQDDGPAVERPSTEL

What is called IC50 is the concentration needed to halve the response being measured. With `CCCCCCCC/C=C\CCCCCCC(O)C(=O)O.N` (stereo not shown) [NH3-OHOD], the values for the 50% inhibitory concentration (IC50) in experiment [1] and in experiment [3] were 85 µM and 81 µM, respectively. Moreover, in [2], the “volume of tumours (percent compared to control)” value is listed as “significant reductions in the size of tumours”. Moreover, in experiment [4], the “% control CHO (cholesterol)” value worked out at 59 % control. The “% control TG (triglycerides)” value in [4] turned out to be 62 % control. Further, in experiment [5], the “Body weight (g) (control = 311 g)” value worked out at 290 g. The “PA (control 214 mmHg)” value in experiment [6] was determined as 149 mmHg.
On to `CCCCCC/C=C\CCCCCCC(O)C(=O)O` (stereo not drawn) [OHHD, α-Hydroxy-cis-Δ9-hexadecenoic], for which the “TNF-α, LPS + OHHD” value in [7] stood at 65 ± 9 pg/mL. Further, the “IL-6, LPS + OHHD” value in experiment [8] stood at 68 ± 8 pg/mL. The “cellular concentration of COX-2 (% of control)” value in experiment [9] is reported as “more significant effect”. In addition, in experiment [10], the “IL-10, LPS + OHHD” value stood at 53 ± 3 pg/mL. For the same compound, the “IL-8, LPS + OHHD” value in experiment [11] stood at 529 ± 7 pg/mL. Further, the “IL-1b, LPS + OHHD” value in experiment [12] amounted to 41 ± 5 pg/mL. In addition, the “tumour volume (prevention of tumour development)” value in experiment [13] is given as “more significant effect”. In [14], the “inhibition of COX-1 activity (% of control)” value is “more significant effect”. Also, the Final weight in experiment [15] is 275 ± 19* g.
